Patent US3983102A, “Process for preparing 5"-amino-4',5"-dideoxybutirosin A” (Parke, Davis & Company, priority 1975, dated 1976)
Values after ≈ are worked out from the molar mass of the structure shown.

Experiments:
Assay in all cases: in vitro antibacterial screening, MIC by microtitration in TSB
Format in all cases: cell-based
Entero. cloacae IMM-50 = settings: Enterobacter cloacae, IMM50
Text: (§1) They show activity when tested by well-recognized in vitro antibacterial screening procedures.

Esch. coli JR-76.2 = settings: Escherichia coli, JR76.2
Text: as §1

Klebs. pneumoniae MGH-1 = settings: Klebsiella pneumoniae, MGH1
Text: as §1

Pseudo. aerug. 130 = settings: Pseudomonas aeruginosa, Pseudo. aerug. 130, gentamicin resistant
Text: as §1

Pseudo. aerug. 58.38 = settings: Pseudomonas aeruginosa
Text: as §1

Pseudo. aerug. 733 = settings: Pseudomonas aeruginosa
Text: as §1

Pseudo. aerug. 74C-1 = settings: Pseudomonas aeruginosa
Text: as §1

Pseudo. aerug. Aquilar = settings: Pseudomonas aeruginosa, butirosin resistant
Text: as §1

Pseudo. aerug. G-76 = settings: Pseudomonas aeruginosa, Pseudo. aerug. G-76, butirosin and gentamicin resistant
Text: as §1

Pseudo. aerug. LA-3399 = settings: Pseudomonas aeruginosa
Text: as §1

Pseudo. aerug. No. 28 = settings: Pseudomonas aeruginosa
Text: as §1

Pseudo. aerug. UI-18 = settings: Pseudomonas aeruginosa
Text: as §1

Pseudo. aerug. VAD12-7-7 = settings: Pseudomonas aeruginosa
Text: as §1

Serr. marcescens IMM-5 = settings: Serratia marcescens, IMM5
Text: as §1

Staph aureus S18713 = settings: Staphylococcus aureus, Staph aureus S18713, butirosin resistant
Text: as §1

NCC[C@H](O)C(=O)N[C@@H]1C[C@H](N)[C@@H](O[C@H]2O[C@H](CN)C[C@H](O)[C@H]2N)[C@H](O[C@@H]2O[C@H](CN)[C@H](O)[C@H]2O)[C@H]1O [I carbonate, 5"-amino-4',5"-dideoxybutirosin A]
MIC (Entero. cloacae IMM-50): 6.3 µg/mL (≈ 11.7 µM) | MIC (Esch. coli JR-76.2): 25 µg/mL (≈ 46.4 µM) | MIC (Klebs. pneumoniae MGH-1): 6.3 µg/mL (≈ 11.7 µM) | MIC (Pseudo. aerug. 130): 6.3 µg/mL (≈ 11.7 µM) | MIC (Pseudo. aerug. 58.38): 6.3 µg/mL (≈ 11.7 µM) | MIC (Pseudo. aerug. 733): 6.3 µg/mL (≈ 11.7 µM) | MIC (Pseudo. aerug. 74C-1): 3.1 µg/mL (≈ 5.76 µM) | MIC (Pseudo. aerug. Aquilar): 25 µg/mL (≈ 46.4 µM) | MIC (Pseudo. aerug. G-76): 12.5 µg/mL (≈ 23.2 µM) | MIC (Pseudo. aerug. LA-3399): 12.5 µg/mL (≈ 23.2 µM) | MIC (Pseudo. aerug. No. 28): 3.1 µg/mL (≈ 5.76 µM) | MIC (Pseudo. aerug. UI-18): 6.3 µg/mL (≈ 11.7 µM) | MIC (Pseudo. aerug. VAD12-7-7): 1.6 µg/mL (≈ 2.97 µM) | MIC (Serr. marcescens IMM-5): 12.5 µg/mL (≈ 23.2 µM) | MIC (Staph aureus S18713): 6.3 µg/mL (≈ 11.7 µM)
